Reference: patent US20260294874A1, “COMPOSITIONS COMPRISING MODULATORS OF RIBONUCLEOPROTEIN GRANULE FORMATION AND DISSOLUTION AND METHODS OF USE THEREOF” (University of Virginia Patent Foundation, priority 2023, published 2026)
“Also recorded” adds a separate entry of the source.

Legend:
Assay type in all cases: cell-based
EDC3 Y475 = target: T1, EDC3 Y475 (Homo sapiens, UniProt Q96F86); experiment: Competitive ABPP SILAC LC-MS/MS chemical proteomics, EDC3 Y475; details: glucose-deprived HEK293T cells, 25 μM, 2 h
T1 sequence (Q96F86 1-508): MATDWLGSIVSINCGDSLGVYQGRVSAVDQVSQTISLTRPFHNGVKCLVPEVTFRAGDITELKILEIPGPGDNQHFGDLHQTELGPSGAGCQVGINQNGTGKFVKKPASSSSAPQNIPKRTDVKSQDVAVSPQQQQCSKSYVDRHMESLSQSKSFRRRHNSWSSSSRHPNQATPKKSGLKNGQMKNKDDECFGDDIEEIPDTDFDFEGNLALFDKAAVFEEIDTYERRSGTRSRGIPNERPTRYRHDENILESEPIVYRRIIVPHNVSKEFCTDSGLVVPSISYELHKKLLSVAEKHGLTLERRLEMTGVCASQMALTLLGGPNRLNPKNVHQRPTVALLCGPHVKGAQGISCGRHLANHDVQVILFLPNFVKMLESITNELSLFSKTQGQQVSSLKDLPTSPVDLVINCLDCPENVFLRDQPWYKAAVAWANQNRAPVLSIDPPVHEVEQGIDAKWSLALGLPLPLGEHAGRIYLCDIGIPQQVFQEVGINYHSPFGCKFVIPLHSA
Procedure: (§1) Preparation of SILAC proteomes for LC-MS/MS analysis. SILAC cell proteomes were fractionated to collect the supernatant and normalized to 2.3 mg/mL in PBS. ‘Heavy’ and ‘light’ proteomes were aliquoted (427 μL) and probe-modified proteins were conjugated to desthiobiotin-PEG-3-azide using copper-catalyze azide-alkyne cycloaddition, trypsinized into peptides using Trypsin/Lys-C Mix (Catalog No. V5071; Promega Corporation, Madison, Wisconsin, United States of America), enriched using PIERCE™ Avidin Agarose brand beads (Catalog No. 20219; Thermo Fisher Scientific Inc., Waltham, Massachusetts. United States of America), and prepared for nano-electrospray ionization-LC-MS/MS analysis as previously described in Hahm et al., 2020.
(§2) Data Analysis—Chemical Proteomics. Identification and analysis of peptides and proteins using LC-MS was accomplished using bioinformatics software and quality control parameter protocols as previously described in Hahm et al., 2020.
We performed quantitative liquid-chromatography tandem mass spectrometry (LC-MS/MS) chemical proteomic studies to identify the target protein and binding site(s) of SuTEx fragments with RNP granule modulating activity. […] SILAC light and heavy cells (HEK293T and HeLa) were treated with experimental conditions used for phenotypic screening including the SuTEx ligand pretreatment (25 μM, 2 h) followed by PB (glucose-deprivation, 15 min) and SG induction (75 μM [COMPOUND LEFT OUT], 30 min). Afterwards, cells were lysed, soluble proteomes treated with HHS-465 SuTEx probe (100 μM, 1 h), a global Tyr/Lys-reactive probe used previously for RNP granule investigations (Ciancone et al., 2022), and samples processed to probe-modified peptides for LC-MS/MS analysis as previously reported (Huang et al., 2021), shown in FIG. 10.
(§3) We detected ~8,700 probe-modified sites (Tyr and Lys) in our aggregate HeLa and HEK293T chemical proteomic analyses. […]

[1] = tested on: Tyr and Lys sites of HeLa and HEK293T proteomes; experiment: Proteome-wide competitive ABPP SILAC LC-MS/MS chemical proteomics of liganded Tyr/Lys sites; details: glucose-deprived HEK293T cells, 25 μM, 2 h
Procedure: as §1, §2
We performed quantitative liquid-chromatography tandem mass spectrometry (LC-MS/MS) chemical proteomic studies to identify the target protein and binding site(s) of SuTEx fragments with RNP granule modulating activity. […]
as §3

[2] = tested on: stress granules (α-G3BP1) in HeLa cells; experiment: Dose-dependent inhibition of induced stress granules in HeLa cells by immunofluorescence; details: 2 h
Procedure: FIGS. 15A-15C. […] (FIG. 15B) Box and whisker plot of the number of SGs per cell from immunofluorescence images of G3BP1+SuTEx fragment ligand treatments in [COMPOUND LEFT OUT]-stressed cells from FIG. 15A (“x” indicates the mean; the center line is the median). […] A two-sample Student's t-test was performed for statistical comparison. (FIG. 15C) The average number of SGs per cell from FIG. 15B was plotted as a function of HHS-166 concentrations from cellular treatments to estimate the EC50 (~8 μM) for [COMPOUND LEFT OUT]-induced SG inhibition in situ. Data shown are representative of n=2 biologically independent replicates.
Immunofluorescence. Immunofluorescence (IF) of HEK293T cells was performed as previously described in Ciancone et al., 2022. HeLa cells were seeded at 9.0×10^4 in a 24-well plate with 12-mm glass coverslips. The next day, the cells were treated with 25 μM SuTEx probe for 2 hours in DMEM medium without FBS. The cells were then treated with 75 μM NaAsO2 for 30 minutes and fixed with 3% paraformaldehyde in PBS for 15 minutes at room temperature (RT) and washed with PBS twice. The fixed cells were permeabilized with PBST (0.1% Triton X-100) for 15 minutes at room temperature and blocked with 5% goat serum in PBST for 30 minutes at RT. The cells were incubated with anti-G3BP1 antibody H-10 (Catalog No. sc-365338 at 1:200 dilution; Santa Cruz Biotechnology, Inc., Dallas, Texas, United States of America) for 2 hours at RT and washed with PBST (0.1% Tween-20) for 5 minutes three times. Next, cells were incubated with goat anti-mouse Alexa 594 antibody (Catalog No. 115-585-003 at 1:800 dilution; Jackson ImmunoResearch, West Grove, Pennsylvania, United States of America) for 30 minutes at RT. […] A CellProfiler pipeline was developed to quantify the number of stress granules under each condition. Briefly, cells were recognized as blue^+ (nuclei) red^+ (G3BP1) objects, and the red^+ granules that meet the shape and size threshold were identified and counted. Cells on the border of linages were excluded from the analysis for more accurate quantification.

SMILES | liganding of EDC3 Y475 (in words) (EDC3 Y475) | SILAC ratio (SR), EDC3 Y475 (EDC3 Y475; HHS-465 100 μM, DMSO (light)/ligand (heavy)) | number of reproducibly liganded sites in addition to EDC3 Y475 [1] | dose dependence of SG inhibition (in words) ([2]; 1-25 μM) | EC50 ([2]; Homo sapiens, in situ, 1-25 μM, n=2, read-out: EC50 for induced SG inhibition) | minimal effective concentration ([2]; Homo sapiens, p<0.001, read-out: concentration giving statistically significant decrease in SG formation)
COc1ccc(S(=O)(=O)n2cc(CS(C)(=O)=O)nn2)cc1 [AHL-030, 1-((4-Methoxyphenyl)sulfonyl)-4-((methylsulfonyl)methyl)-1H-1,2,3-triazole] | localized AHL-030 site of binding to Y475; also recorded: liganded site (Y475) | > 2 | 7 |  |  | 
COc1ccc(S(=O)(=O)n2cc(C3CCCCC3)nn2)cc1 [HHS-166, 4-Cyclohexyl-1-((4-methoxyphenyl)sulfonyl)-111-1,2,3-triazole] |  |  |  | dose-dependent inhibition; also recorded: dose-dependent effects on SG formation | 8 µM | ≥ 12.5 µM
